Values quoted from earlier work, collected in PMC10640708 (ACS chemical biology, 2018).

Molecular target: calcium sensing receptor (CaSR)
Details: read-out: EC50 of CaSR activation; Ca2+ alone

In the case of `[Ca+2]` [Ca^2+], the EC50 is given as about 4 mM.
